Measurements published in patent US10421722B2, “Sulfur-containing compounds targeting vesicular acetylcholine transporter” (Washington University, priority 2016, dated 2019).

Experiments:
VAChT [1] = details: cynomolgus monkey, in vivo
Experimental: PET studies were performed on adult male cynomolgus monkeys (6-8 kg) with a MicroPET Focus 220 scanner (Concorde/CTI/Siemens Microsystems, Knoxville, Tenn.). The animal was anesthetized using an intramuscular injection with ketamine (10-20 mg/kg) and glycopyrrolate (0.013-0.017 mg/kg) and then transported to the PET scanner suit. After arrival, the animal was intubated with an endotracheal tube and anesthesia was maintained at 0.75-2.0% isoflurane/oxygen throughout the procedure, and then a percutaneous venous catheter was placed for radiotracer injection. A heated water blanket was used to keep the temperature at 37° C. In each MicroPET scanning session, the head was positioned supine in the adjustable head holder with the brain in the center of the field of view. A 10-min transmission scan was performed to check positioning; once confirmed, a 45 min transmission scan was obtained for attenuation correction. Subsequently, a 2 h dynamic emission scan was acquired after administration of 296-410 MBq of (−)-[^11C]3 or (−)-[^18F]9a via the venous catheter. PET scans were collected from 0-120 min with the following time frames: 3×1 min, 4×2 min, 3×3 min and 20×5 min. PET image reconstructed resolution was <2.0 mm full width half maximum for all 3 dimensions at the center of the field of view. Emission data were corrected using individual attenuation and model-based scatter correction and reconstructed using filtered back projection. The first baseline PET image for each animal acted as the target image with the MPRAGE and subsequent PETs co-registered using automated image registration program AIR. All MPRAGE-based volume of interest (VOI) analyses were accomplished by experienced investigators. For quantitative analyses, three-dimensional ROIs (striatum, cerebellum, frontal cortex, occipital cortex, temporal, midbrain, hippocampus and thalamus) were transformed to the baseline PET space and then overlaid on all reconstructed PET images to obtain time-activity curves. Activity measures were standardized to body weight and dose of radioactivity injected to yield standardized uptake value (SUV).

[2] = Radiometabolite analysis of NHP arterial plasma; type: in vivo, cynomolgus monkey
Experimental: In order to further understand the kinetic property, radioactive metabolite analysis on HPLC was performed for NHP plasma. (−)-[^18F]9a was chosen for this study because of the high uptake and longer half live of ^18F. Arterial blood samples (1.2-1.5 mL) were collected at 2, 5, 15, 30, and 60 min post-injection of the radiotracer in a heparinized syringe. Aliquots of whole blood (1 mL) were counted in a well counter, then centrifuged to separate red blood cells from plasma. Aliquots of plasma (400 μL) were deproteinated using ice-cold methanol (0.92 mL) and separated by centrifugation. The solvent extract was then injected onto HPLC to identify the percentage of radioactive parent compound versus any radiolabeled metabolites. The HPLC system consisted of an Agilent SB C-18 analytic HPLC column (250 mm×4.6 mm) and an UV detector with wavelength set at 254 nm. The mobile phase was 43% acetonitrile in 0.1 M ammonium formate buffer (pH 4.5), and the flow rate was 1.0 mL/min. The HPLC fractions were collected at 1 min intervals for 16 min; each fraction was counted by a well counter to determine the radioactivity of each collection. The results were corrected for background radiation and physical decay.

VAChT [3] = biological target: VAChT (Rattus norvegicus (Rat), UniProt Q62666); experiment: Ex vivo autoradiography of rat brain; type: in vivo, Sprague-Dawley rat
Experimental: Ex vivo autoradiography was performed on 6-8 month old male Sprague-Dawley rats to confirm the brain distribution of radiolabeled VAChT ligands. Mature male Sprague-Dawley rats were injected with ˜500 μCi of (−)-[^11C]3 or (−)-[^18F]9a via the tail vein under isoflurane/oxygen anesthesia, respectively. The rats were euthanized after 1 h and the brains were quickly removed and placed in a metal brain matrix with slots spaced at 1 mm intervals. The brains were then frozen in the matrix and sectioned into 100 μm coronal slices. Brain slices were carefully removed from the brain matrix razor blades and placed on a clear sheet covered with film and mounting on glass slides. Then, the brain sections were exposed to the film in an imaging cassette for 12 h before they were counted by the FLA7000. Photographic images were obtained using a flatbed scanner. […] There was also moderate uptake in other regions, which may be caused by the moderate binding activity to σ1 receptor. The quantification of autoradiography from entire 30 brain slices indicated the uptake ratio of radioactivity in striatum versus cerebellum reached 1.75 and 1.54, respectively. (FIGS. 6B and 6D)

VAChT (Rattus norvegicus (Rat), UniProt Q62666), sequence (Q62666 whole entry): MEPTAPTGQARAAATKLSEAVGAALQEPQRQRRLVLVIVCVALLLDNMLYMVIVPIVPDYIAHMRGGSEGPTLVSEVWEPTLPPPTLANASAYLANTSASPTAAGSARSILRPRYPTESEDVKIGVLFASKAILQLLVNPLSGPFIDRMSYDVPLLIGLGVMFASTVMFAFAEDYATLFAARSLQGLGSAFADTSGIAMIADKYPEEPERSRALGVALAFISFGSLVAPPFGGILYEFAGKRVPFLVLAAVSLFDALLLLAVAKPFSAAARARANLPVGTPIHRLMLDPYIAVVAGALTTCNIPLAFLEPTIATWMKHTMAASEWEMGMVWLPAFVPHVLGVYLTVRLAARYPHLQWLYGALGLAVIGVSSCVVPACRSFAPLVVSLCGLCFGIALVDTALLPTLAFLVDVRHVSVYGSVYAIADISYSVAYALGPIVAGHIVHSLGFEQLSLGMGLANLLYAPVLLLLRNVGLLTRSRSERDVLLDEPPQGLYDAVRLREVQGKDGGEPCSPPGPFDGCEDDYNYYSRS

With `O=C(c1ccc(SCC[18F])cc1)C1CCN([C@@H]2Cc3ccccc3C[C@H]2O)CC1` (single isomer, unassigned) [(−)-[^18F]9a] the brain entry (VAChT [1]) was “able to enter the NHP brain”, the regional brain accumulation (VAChT [1]) was “highest accumulation in the striatal region” and the “time at which striatal SUV reached maximum” value (VAChT [1]) was 6 min. The “percentage of parent compound in plasma” value ([2]; NHP arterial plasma, 2 min post-injection) was 69%, the “percentage of parent compound in plasma” value ([2]; NHP arterial plasma, 5 min post-injection) was 48% and the “percentage of parent compound in plasma” value ([2]; NHP arterial plasma, 15 min post-injection) was 27%. For the same molecule, the “percentage of parent compound in plasma” value ([2]; NHP arterial plasma, 30 min post-injection) was 21%, the “percentage of parent compound in plasma” value ([2]; NHP arterial plasma, 60 min post-injection) was 15% and the “percentage of hydrophilic radioactive metabolite” value ([2]; NHP arterial plasma, peaked after 30 min) was 70%. The metabolism in plasma ([2]; NHP plasma, HPLC metabolite analysis) was “quickly metabolized in the plasma”, the “uptake ratio of radioactivity in striatum versus cerebellum” value (VAChT [3]; 30 slices, 60 min post-injection, tail vein) was 1.54 and the “brain distribution of radioactivity (autoradiograms)” value (VAChT [3]; 1 h after injection) was “high accumulation in the VAChT enriched striatum”.
